Values quoted from earlier work as cited in patent US20160213782A1, “POLYURETHANES AS ORAL DRUG DELIVERY PLATFORM” (Universiteit Gent, priority 2013, published 2016).
Structures can show the parent of a compound that is named as a salt.

Conditions: for drug solubility: as given in legend of FIG. 1; for aqueous solubility in 100 ml at 25° C.: in 100 ml water

Structure (SMILES) | drug solubility [mg/mL] | aqueous solubility in 100 ml at 25° C. [g]
COCCc1ccc(OCC(O)CNC(C)C)cc1 (centres unmarked) [MPT, Metoprolol tartrate] | > 1000 | –
CC(=O)Nc1ccc(O)cc1 [acetaminophen] | – | 1.4
Cn1c(=O)c2c(ncn2CC(O)CO)n(C)c1=O (centres unmarked) [Dyph, 7-(2,3-dihydroxypropyl)-theophylline] | – | 33
Cn1c(=O)c2[nH]cnc2n(C)c1=O [TH, Theophylline] | 10 | 0.7
